Measurements taken from patent US20260306500A1, “METHOD OF INHIBITING ADENOSINE TRIPHOSPHATE SECRETION, METHOD OF INHIBITING HEPATIC STELLATE CELL ACTIVATION, METHOD OF DEACTIVATING HEPATIC STELLATE CELL, METHOD OF TREATING HEPATIC FIBROSIS, METHOD OF TREATING NON-ALCOHOLIC STEATOHEPATITIS, AND METHOD OF TREATING PSORIASIS” (Kurume University, priority 2023, published 2026).

How the values were obtained:
[1] = test system: chromaffin granule membrane; assay: ATP transport (uptake of radiolabeled ATP) in chromaffin granule membrane vesicles; type: biochemical, cattle; conditions: role: inhibitor, 1 mM 3H-ATP
Experimental: Chromaffin granule membranes were prepared from adrenal glands collected from slaughtered cattle according to Reference A (Nathan Nelson et al., 1988, Chromaffin Granule Proton Pump, Methods in Enzymology, 157, 619-633). Chromaffin granule membranes prepared by sucrose density gradient centrifugation were suspended in 2 ml of SME buffer (20 mM MOPS-tris (pH 7.0), 0.3 M sucrose, 5 mM EDTA, 10 μg/ml leupeptin, and 10 μg/ml pepstatin)+25% glycerol, and the resulting suspension was aliquoted and stored at −80° C. Under these conditions, the ATP transport activity, the V-ATPase activity, and the catecholamine transport activity remain fully active for at least one year.
An ATP transport inhibition experiment for the chromaffin granule membrane was carried out according to Reference B (Yoshinori Moriyama et al., 2022, Is the vesicular nucleotide transporter a molecular target of eicosapentaenoic acid?, Frontiers in Pharmacology, 103389). About 20 μg of chromaffin granule membranes were added to 0.5 ml of measurement buffer (20 mM MOPS-tris (pH 7.0), 0.3 M sucrose, 5 mM potassium chloride, 5 mM magnesium acetate, 5 mM creatine phosphate, 10 units of creatine kinase, and 1 mM 3[H]-ATP [15 KBq/assay]), followed by incubation at 30° C. for 1 hour. Through a Millipore MCE membrane filter with a pore size […], 0.2 ml of the reaction liquid was filtered by suction. Thereafter, the filter was washed with 10 ml of 20 mM MOPS-tris (pH 7.0), 0.3 M sucrose, 5 mM potassium chloride, and 5 mM magnesium acetate, and dissolved in 10 ml of Clear-sol II (manufactured by Nacalai Tesque, Inc.). The radioactivity was then measured using a liquid scintillation counter (N=3).
The reaction was initiated by adding 50 mM ^3[H]-ATP to a final concentration of 1 mM. The 50 mM ^3[H]-ATP was prepared by mixing an ATP-tris solution (manufactured by Sigma-Aldrich) with [2,8-^3H]adenosine triphosphate tetrasodium salt (26.0 Ci/mmol) (manufactured by New England Nuclear). PEP was used as a test reagent, and pyruvic acid was used as a negative control. Five minutes before the addition of ATP, PEP or pyruvic acid, as a solution in 20 mM MOPS-tris (pH 7.0), 0.3 M sucrose, 5 mM potassium chloride, and 5 mM magnesium acetate, was added to the measurement liquid to a final PEP concentration of 0.02, 0.05, 0.1, 0.2, 0.4, or 1 mM, or to a final pyruvic acid concentration of 0.5 or 1 mM.
Chromaffin granule membrane vesicles were prepared in the same manner as in Example 5, and uptake of radiolabeled ATP into the vesicles was measured. Transport activity of catecholamine (dopamine) and ATP-dependent proton transport by V-ATPase were also measured in the same manner as in Example 5.

[2] = test system: mouse auricle; assay: Imiquimod-induced psoriasis model, comparison with an anti-TNFα antibody (Example 19); type: in vivo; conditions: imeglimin 40 mg/kg oral daily or infliximab 100 μg/mouse i.v. Days 1, 3, 5
Experimental: The dorsal hair of mice was shaved and depilated (Day 0). To each of the left auricle and the depilated back of each mouse, 62.5 mg of 5% imiquimod cream (Beselna Cream 5%) was applied once daily a total of seven times (Days 1 to 7) in accordance with Example 18, to induce imiquimod-induced psoriasis (IMQ group). In the IMQ+IMG group, mice received oral administration of imeglimin (40 mg/kg) once daily (Day 1 to 7) after the imiquimod application. […] Thickness of the auricle was measured, and the degrees of erythema, desquamation, and infiltration in the affected area were rated on Days 1, 3, 5, 7, and 8 according to the PASI scoring of the DermNET Dermatology Resource (none: 0, mild: 1, moderate: 2, severe: 3, and very severe: 4). The resulting values were used to calculate the PASI score.
Further, for an auricle excised on Day 8, immunohistochemical staining was performed in the same manner as in Example 18, and auricular sections were imaged using a fluorescence microscope (BZ-X710; manufactured by Keyence Corporation).

[3] = test system: human epidermal keratinocytes; assay: ATP secretion from human epidermal keratinocytes promoted by ionomycin; type: cell-based; conditions: 5 μM ionomycin as stimulant, keratinocytes
Experimental: Human epidermal keratinocytes (Cryopreserved HEK, Lot 1758, Cell Applications Inc.) were cultured using an Epivita Keratinocyte Growth Medium Kit according to the manufacturer's instructions. The procedure was as follows. A supplement medium was added to a hydrocortisone-containing basal medium included in the medium preparation kit to prepare a complete medium. The medium in the dish was removed by aspiration. The cells were washed with 5 ml of BSS (Gbco), and then the BSS was removed by aspiration. After addition of 5 to 6 ml of trypsin/EDTA solution (Gbco), the dish was incubated at 37° C. for 2 minutes. After addition of 5 ml of trypsin neutralization solution, the resulting cell suspension was transferred into two 15-ml Falcon tubes, and centrifuged at 200×g for 5 minutes. The supernatant was removed by aspiration, and the pelleted cell cluster was suspended in 2 ml of the medium at 4.5×10^5 cells/ml. An aliquot of the resulting cell suspension was cryopreserved, while another aliquot was cultured and subjected to measurement.
ATP secretion by human epidermal keratinocytes (hereinafter referred to as “keratinocytes”) was measured. Regarding control solutions, Krebs-Ringer HEPES supplemented with 0.2% BSA and 25 mM glucose (hereinafter also referred to as “Krebs/Iono(−)”) was used as a negative control, and a solution prepared by adding 5 μM ionomycin to this solution (hereinafter also referred to as “Krebs/Iono(+)”) was used as a positive control for ATP secretion. Ionomycin is a Ca^2+ ionophore. Addition of ionomycin to cells is known to promote influx of extracellular Ca^2+ into the cells to increase the intracellular Ca^2+ concentration, resulting in enhancement of ATP secretion. Test solutions were prepared by adding clodronate to Krebs/Iono(−) or Krebs/Iono(+) to a final concentration of 0.1 μM (hereinafter also referred to as “Clo/Iono(−)” or “Clo/Iono(+)”, respectively) (N=3).
Keratinocytes were cultured at 2.5×10^4 cells/well in a 24-well plate at 37° C. in 5% CO2 for 4 days. The medium was removed by aspiration, replaced with Krebs/Iono(−) or Clo/Iono(−), and incubated at 37° C. for 6 hours. These solutions were then removed by aspiration, and the content of each well incubated with Krebs/Iono(−) was replaced with 300 μl of a control solution (Krebs/Iono(−) or Krebs/Iono(+)), while the content of each well incubated with Clo/Iono(−) was replaced with 300 μl of a test solution (Clo/Iono(−) or Clo/Iono(+)). After further incubation at 37° C. for 20 minutes, 200 μl of the supernatant was collected. The collected supernatant was immediately treated on a heat block at 95° C. for 10 minutes, to inactivate ectonucleotidase. ATP in the supernatant was quantified using a Dojindo ATP assay kit−Luminescence (manufactured by Dojindo Laboratories).
Keratinocytes were cultured in the same manner as in Example 1, and ATP secretion from the keratinocytes was measured. Krebs/Iono(−), or a solution prepared by adding 10 μM imeglimin, 0.1 μM eicosapentaenoic acid (EPA), 1 μM EPA, or 10 μM clodronate to Krebs/Iono(−) was used (N=4).
After culturing keratinocytes, the medium was removed by aspiration, and replaced with Krebs/Iono(−), or Krebs/Iono(−) supplemented with 10 μM imeglimin, 0.1 μM EPA, 1 μM EPA, or 10 μM clodronate, followed by incubation for 6 hours. Subsequently, the solution was replaced with either a control solution (Krebs/Iono(−) or Krebs/Iono(+)) or a test solution (Krebs/Iono(+) supplemented with 10 μM imeglimin, 0.1 μM EPA, 1 μM EPA, or 10 μM clodronate), followed by incubation at 37° C. for 20 minutes and then collection of 200 μl of the supernatant. The collected supernatant was immediately treated on a heat block at 95° C. for 10 minutes to inactivate ectonucleotidase. ATP in the supernatant was quantified using a Dojindo ATP assay kit—Luminescence (manufactured by Dojindo Laboratories). […]

[4] = test system: LX-2 cells; assay: ATP secretion from LX-2 cells; type: cell-based, human
Experimental: Cells of the immortalized human hepatic stellate cell line LX-2 (manufactured by Merck) was cultured in Dulbecco's modified Eagle's medium (DMEM, 4500 mg/l Glucose, D5796, manufactured by Sigma-Aldrich) supplemented with inactivated 2% fetal bovine serum (FBS), 10 IU/ml penicillin, and 10 IU/ml streptomycin in a T25 or T75 flask at 37° C. in 5% CO2.
LX-2 cells (2×10^6 cells per well) were seeded in a collagen-coated 6-well culture dish containing Dulbecco's modified Eagle's medium (manufactured by Sigma-Aldrich) supplemented with 10 IU/ml penicillin, […] 2% fetal bovine serum, and cultured in 5% CO2 at 37° C. After 3 days, the LX-2 cells were washed twice and preincubated in Krebs-Ringer buffer (10 mM HEPES-Tris, pH 7.4, 128 mM NaCl, 1.9 mM KCl, 1.2 mM KH2PO4, 1.3 mM MgSO4, 26 mM NaHCO3, 2.4 mM CaCl2, 10 mM glucose, 0.2% (w/v) bovine serum albumin) with or without 10 μM clodronate. The LX-2 cells were then stimulated with Krebs-Ringer buffer supplemented with ionomycin (manufactured by Cayman) regardless of whether clodronate was present or not. For the stimulation, 1 mM EGTA (manufactured by Dojindo) or 10 μM serotonin (5-HT, manufactured by Sigma-Aldrich) was used. The ATP concentration in the culture supernatant was measured in the same manner as in Example 6.
For an siRNA experiment, a TriFECTa (trademark) RNAi Kit (manufactured by Integrated DNA Technologies) was used. A scramble RNA (scRNA) as a control siRNA, or a VNUT-specific siRNA, was incubated with Lipofectamine 3000 reagent (manufactured by Invitrogen) in OptiMEM reduced-serum medium (#31985070, manufactured by Gibco) at room temperature for 15 minutes, and then added directly to the cultured cells. The LX-2 cells as the transfection mixture were plated, and then cultured for 48 hours. The base sequences of VNUT siRNA forward and VNUT siRNA reverse, used for the above kit, are shown in SEQ ID NOs: 1 and 2, respectively. A positive control for an endogenous gene (#51-01-08-02) and a negative control (#51-01-14-03) were used.

O=C(O)CC(=O)C(=O)O [oxaloacetic acid]
inhibitory activity on ATP transport [1]: no inhibitory activity was found

O=C(O)C[C@H](O)C(=O)O [malic acid]
inhibitory activity on ATP transport [1]: no inhibitory activity was found

O=C[C@H](O)[C@@H](O)[C@H](O)[C@H](O)COP(=O)(O)O [glucose-6-phosphate]
inhibitory activity on ATP transport [1]: no inhibitory activity was found

infliximab: infliximab (manufactured by Nichi-Iko Pharmaceutical Co., Ltd.), an anti-TNFα antibody as an existing drug
erythema (excepted from the symptoms reduced) ([2]; N=5 (FIG. 38)): except erythema | typical psoriatic symptoms induced by imiquimod, except erythema (thickness, desquamation, infiltration, PASI score) ([2]; N=5 (FIGS. 37-41)): reduced

CC(=O)C(=O)O [pyruvic acid]
inhibitory activity on ATP transport [1]: no inhibitory activity was found | inhibition of ATP transport ([1]; up to 1 mM pyruvic acid): did not inhibit ATP transport

NC(=O)c1ccc[n+]([C@@H]2O[C@H](COP(=O)([O-])OP(=O)(O)OC[C@H]3O[C@@H](n4cnc5c(N)ncnc54)[C@H](O)[C@@H]3O)[C@@H](O)[C@H]2O)c1 [NAD+]
inhibitory activity on ATP transport [1]: no inhibitory activity was found

C[C@H](CCC(=O)O)C[C@H](C)C[C@H](C)C(=O)/C=C(\O)[C@H](C)C[C@H](C)C/C=C/[C@@H](C)[C@@H](O)[C@@H](C)[C@@H](O)C[C@@H]1CC[C@@](C)([C@H]2CC[C@@](C)([C@@H](C)O)O2)O1 [ionomycin]
ATP secretion [3]: promotes ATP secretion | secretion of ATP by the LX-2 cells over time ([4]; ionomycin, N=3 (FIG. 20)): increased secretion of ATP

O=C(O)CC(O)(CC(=O)O)C(=O)O [citric acid]
inhibitory activity on ATP transport [1]: no inhibitory activity was found

O=C(O)CN(CCOCCOCCN(CC(=O)O)CC(=O)O)CC(=O)O [EGTA]
ionomycin-induced ATP secretion ([4]; 1 mM EGTA, chelating of Ca2+, N=6 (FIG. 21)): strongly inhibited

CC(=O)SCCNC(=O)CCNC(=O)[C@H](O)C(C)(C)COP(=O)(O)OP(=O)(O)OC[C@H]1O[C@@H](n2cnc3c(N)ncnc32)[C@H](O)[C@@H]1OP(=O)(O)O [acetyl-CoA]
inhibitory activity on ATP transport [1]: no inhibitory activity was found

O=C(CO)[C@@H](O)[C@H](O)[C@H](O)COP(=O)(O)O [fructose-6-phosphate]
inhibitory activity on ATP transport [1]: no inhibitory activity was found

C[C@H](O)C(=O)O [L-lactic acid]
inhibitory activity on ATP transport [1]: no inhibitory activity was found

NCCc1c[nH]c2ccc(O)cc12 [5-HT, serotonin]
ATP secretion from the LX-2 cells ([4]; 10 μM serotonin (5-HT) (FIG. 25)): promoted ATP secretion
